Measurements: patent US9150592B2, “Heterocyclic nuclear hormone receptor modulators” (AbbVie Inc., priority 2012, dated 2015)

Tests used:
[1] = target: T1, Glucocorticoid Receptor (GR) (Homo sapiens, UniProt P04150); test: GR Fluorescence Polarization Assay (PolarScreen Glucocorticoid Receptor Competitor Assay, Red); details: IC50 class ranges, read-out: GR binding
T1 construct: purchased Invitrogen P2893
T1 sequence (P04150 1-777): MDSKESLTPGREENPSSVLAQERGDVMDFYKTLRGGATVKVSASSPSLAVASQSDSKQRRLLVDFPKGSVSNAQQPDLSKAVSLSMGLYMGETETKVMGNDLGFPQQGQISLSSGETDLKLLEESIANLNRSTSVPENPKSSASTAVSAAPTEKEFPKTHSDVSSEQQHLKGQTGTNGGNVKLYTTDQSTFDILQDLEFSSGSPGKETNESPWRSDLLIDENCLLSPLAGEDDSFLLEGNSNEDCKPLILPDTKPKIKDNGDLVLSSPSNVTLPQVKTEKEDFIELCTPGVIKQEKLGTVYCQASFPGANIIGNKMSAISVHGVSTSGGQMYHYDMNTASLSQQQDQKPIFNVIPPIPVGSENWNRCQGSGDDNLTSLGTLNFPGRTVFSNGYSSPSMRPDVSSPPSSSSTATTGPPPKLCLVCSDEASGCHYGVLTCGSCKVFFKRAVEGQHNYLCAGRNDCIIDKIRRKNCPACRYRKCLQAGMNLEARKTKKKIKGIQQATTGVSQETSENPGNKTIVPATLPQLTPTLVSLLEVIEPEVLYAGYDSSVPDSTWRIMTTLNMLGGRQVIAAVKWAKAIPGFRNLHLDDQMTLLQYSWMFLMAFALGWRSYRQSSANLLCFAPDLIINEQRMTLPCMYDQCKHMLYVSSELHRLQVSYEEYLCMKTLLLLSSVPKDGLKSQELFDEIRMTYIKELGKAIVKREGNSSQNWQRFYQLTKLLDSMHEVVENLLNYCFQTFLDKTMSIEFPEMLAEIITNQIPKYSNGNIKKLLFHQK
Summary of the method: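 Competitive fluorescence-polarization assay using a red fluorescent glucocorticoid tracer with human GR in kit buffer. Compounds serially diluted 1:4 in DMSO, incubated with tracer and GR overnight at 4° C, then polarization read.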

[2] = tested on: IL-6 in A549 cells stimulated with IL-1β; test: A549 Cell Assay to Measure Inflammation Markers (inhibition of IL-1β-induced IL-6); format: cell-based; details: intrinsic activity, Emax class ranges; for Emax: Homo sapiens, A549, A549 Cell Assay to Measure Inflammation Markers; for A549 Emax: A549 Cell Assay to Measure Inflammation Markers
Method: A549 Cell Assay to Measure Inflammation Markers
Further dilution (1:250) of compound was made into assay medium and 50 μL/well diluted drug or DMSO/media control was applied to cells. After a 1 h pre-incubation in a temperature, CO2, and humidity controlled incubator, set to 37° C., 50 μL/well of 4 ng/mL IL-1β diluted in assay media, was applied to cultures. Assay plates, with a final volume of 200 μL/well and final concentrations of 0.1% DMSO and 1 ng/mL IL-1β were returned to incubator for a […] incubation period. Next, plates were spun at 183 g (1000 rpm in Beckman/Coulter Allegra 6KR centrifuge) for 10 min. Cell-free supernatant (150 μL/well) was collected and IL-6 was measured by MSD kit, following protocol of manufacturer, and using MSD SECTOR Imager 6000 instrument. […] Results were represented as IC50 and Emax values.

IC50 [1] [nM]	Structure (SMILES)	Emax [2] [%]	A549 Emax [2]
1000 to 10000	Cn1nc(C2CC2)c2c1NCC(C)(C)SC2c1ccc(Cl)cc1F (single isomer, unassigned) [M.3, 4-(4-chloro-2-fluorophenyl)-3-cyclopropyl-1,6,6-trimethyl-4,6,7,8-tetrahydro-1H-pyrazolo[3,4-e][1,4]thiazepine]	< 50	
< 100	Cn1nc(C2CC2)c2c1NCC(C)(C)SC2c1ccc(Cl)cc1F (single isomer, unassigned) [M.4, 4-(4-chloro-2-fluorophenyl)-3-cyclopropyl-1,6,6-trimethyl-4,6,7,8-tetrahydro-1H-pyrazolo[3,4-e][1,4]thiazepine]		D (a compound with Emax<50%)
1000 to 10000	Cc1nn(CC(O)C(F)(F)F)c2c1C(c1ccc(Cl)cc1Cl)SC(C)(C)CN2 (single isomer, unassigned) [M.5, 3-(4-(2,4-dichlorophenyl)-3,6,6-trimethyl-4,6,7,8-tetrahydro-1H-pyrazolo[3,4-e][1,4]thiazepin-1-yl)-1,1,1-trifluoropropan-2-ol]	< 50	
< 100	Cc1cc(Cl)ccc1[C@H]1SC(C)(C)CNc2c1c(C)nn2C (single isomer, unassigned) [M.6]	< 50	
1000 to 10000	Cc1cc(Cl)ccc1[C@@H]1SC(C)(C)CNc2c1c(C)nn2C (single isomer, unassigned) [M.7]	< 50	
1000 to 10000	Cc1ncccc1NC(=O)c1ccc(C2SC(C)(C)CNc3c2c(C)nn3C)c(Cl)c1 (single isomer, unassigned) [M.8, 3-chloro-N-(2-methylpyridin-3-yl)-4-(1,3,6,6-tetramethyl-4,6,7,8-tetrahydro-1H-pyrazolo[3,4-e][1,4]thiazepin-4-yl)benzamide]	< 50	
100 to 1000	Cc1ncccc1NC(=O)c1ccc(C2SC(C)(C)CNc3c2c(C)nn3C)c(Cl)c1 (single isomer, unassigned) [M.9, 3-chloro-N-(2-methylpyridin-3-yl)-4-(1,3,6,6-tetramethyl-4,6,7,8-tetrahydro-1H-pyrazolo[3,4-e][1,4]thiazepin-4-yl)benzamide]		D (a compound with Emax<50%)
1000 to 10000	Cc1cc(Cl)ccc1[C@H]1S[C@@H](CCO)CNc2c1c(-c1ccccn1)nn2C (single isomer, unassigned) [M.10, 2-(4-(4-chloro-2-methylphenyl)-1-methyl-3-(pyridin-2-yl)-4,6,7,8-tetrahydro-1H-pyrazolo[3,4-e][1,4]thiazepin-6-yl)ethanol]	< 50	
1000 to 10000	Cc1cc(Cl)ccc1[C@H]1S[C@H](CCO)CNc2c1c(-c1ccccn1)nn2C (single isomer, unassigned) [M.11, 2-(4-(4-chloro-2-methylphenyl)-1-methyl-3-(pyridin-2-yl)-4,6,7,8-tetrahydro-1H-pyrazolo[3,4-e][1,4]thiazepin-6-yl)ethanol]	< 50	
100 to 1000	Cc1cc(Cl)ccc1[C@@H]1S[C@H](CCO)CNc2c1c(-c1ccccn1)nn2C (single isomer, unassigned) [M.12, 2-(4-(4-chloro-2-methylphenyl)-1-methyl-3-(pyridin-2-yl)-4,6,7,8-tetrahydro-1H-pyrazolo[3,4-e][1,4]thiazepin-6-yl)ethanol]	< 50	
< 100	Cc1cc(Cl)ccc1[C@@H]1S[C@@H](CCO)CNc2c1c(-c1ccccn1)nn2C (single isomer, unassigned) [M.13, 2-(4-(4-chloro-2-methylphenyl)-1-methyl-3-(pyridin-2-yl)-4,6,7,8-tetrahydro-1H-pyrazolo[3,4-e][1,4]thiazepin-6-yl)ethanol]	< 50	
100 to 1000	Cc1cc(Cl)ccc1[C@H]1S[C@H](CCO)CNc2c1c(C)nn2C (single isomer, unassigned) [M.14, 2-[4-(4-chloro-2-methyl-phenyl)-1,3-dimethyl-4,6,7,8-tetrahydro-1H-pyrazolo[3,4-e][1,4]thiazepin-6-yl]-ethanol]	> 70	
100 to 1000	Cc1cc(Cl)ccc1[C@H]1S[C@@H](CCO)CNc2c1c(C)nn2C (single isomer, unassigned) [M.15, 2-[4-(4-chloro-2-methyl-phenyl)-1,3-dimethyl-4,6,7,8-tetrahydro-1H-pyrazolo[3,4-e][1,4]thiazepin-6-yl]-ethanol]	> 70	
1000 to 10000	Cc1cc(Cl)ccc1[C@@H]1S[C@@H](CCO)CNc2c1c(C)nn2C (single isomer, unassigned) [M.16, 2-[4-(4-chloro-2-methyl-phenyl)-1,3-dimethyl-4,6,7,8-tetrahydro-1H-pyrazolo[3,4-e][1,4]thiazepin-6-yl]-ethanol]	< 50	
100 to 1000	Cc1cc(Cl)ccc1[C@@H]1S[C@H](CCO)CNc2c1c(C)nn2C (single isomer, unassigned) [M.17, 2-[4-(4-chloro-2-methyl-phenyl)-1,3-dimethyl-4,6,7,8-tetrahydro-1H-pyrazolo[3,4-e][1,4]thiazepin-6-yl]-ethanol]	< 50	

Structure (SMILES)	IC50 [1] [nM]	Emax [2] [%]	A549 Emax [2]
Cn1nc(-c2ccccn2)c2c1NCCS[C@H]2c1ccc(Br)cc1Cl (single isomer, unassigned) [M.2, 4-(4-bromo-2-chlorophenyl)-1-methyl-3-(pyridin-2-yl)-4,6,7,8-tetrahydro-1H-pyrazolo[3,4-e][1,4]thiazepine]	< 100	< 50	
Cc1cc(C#N)ccc1C1SCCNc2c1c(-c1ccccn1)nn2C (single isomer, unassigned) [M.20, 3-methyl-4-(1-methyl-3-(pyridin-2-yl)-4,6,7,8-tetrahydro-1H-pyrazolo[3,4-e][1,4]thiazepin-4-yl)benzonitrile]	< 100	> 70	
CCn1nc(-c2ccccn2)c2c1NCCSC2c1ccc(C#N)cc1C (single isomer, unassigned) [M.22, 3-methyl-4-(1-ethyl-3-(pyridin-2-yl)-4,6,7,8-tetrahydro-1H-pyrazolo[3,4-e][1,4]thiazepin-4-yl)benzonitrile]	< 100	> 70	
Cc1cc(OCC#N)ccc1[C@@H]1SC[C@@H](C)Nc2c1c(-c1ccccn1)nn2C (single isomer, unassigned) [M.23, 2-(4-(1,7-dimethyl-3-(pyridin-2-yl)-4,6,7,8-tetrahydro-1H-pyrazolo[3,4-e][1,4]thiazepin-4-yl)-3-methylphenoxy)acetonitrile]	< 100	> 50	
Cc1cc(OCC(N)=O)ccc1[C@@H]1SC[C@@H](C)Nc2c1c(-c1ccccn1)nn2C (single isomer, unassigned) [M.24, 2-(4-(1,7-dimethyl-3-(pyridin-2-yl)-4,6,7,8-tetrahydro-1H-pyrazolo[3,4-e][1,4]thiazepin-4-yl)-3-methylphenoxy)acetamide]	< 100	> 70	
CCn1nc(-c2ccccn2)c2c1N[C@H](C)CS[C@H]2c1ccc(C#CCO)cc1C (single isomer, unassigned) [M.27, 3-(4-(1-ethyl-7-methyl-3-(pyridin-2-yl)-4,6,7,8-tetrahydro-1H-pyrazolo[3,4-e][1,4]thiazepin-4-yl)-3-methylphenyl)prop-2-yn-1-ol]	< 100	> 60	
CCn1nc(-c2ccccn2)c2c1N[C@@H](C)CS[C@H]2c1ccc(C#CCO)cc1C (single isomer, unassigned) [M.28, 3-(4-(1-ethyl-7-methyl-3-(pyridin-2-yl)-4,6,7,8-tetrahydro-1H-pyrazolo[3,4-e][1,4]thiazepin-4-yl)-3-methylphenyl)prop-2-yn-1-ol]	< 100	> 60	
CCn1nc(-c2ccccn2)c2c1N[C@H](C)CS[C@H]2c1ccc(C#CC(C)(C)O)cc1C (single isomer, unassigned) [M.31, 4-(4-(1-ethyl-7-methyl-3-(pyridin-2-yl)-4,6,7,8-tetrahydro-1H-pyrazolo[3,4-e][1,4]thiazepin-4-yl)-3-methylphenyl)-2-methylbut-3-yn-2-ol]	< 100	> 70	
